Experimental data published in patent publication US20190008878A1, “COMPOSITIONS AND METHOD FOR REDUCING CARDIOTOXICITY” (SignPath Pharma Inc., priority 2017, published 2019).
“Also recorded” adds a separate entry of the source. Each block holds one molecule with its values, some of them ahead of it.

Legend:
[1] = chronic sunitinib cardiotoxicity study, two 28-day cycles with or without the invention (ECG, echocardiography, arterial pressure, body weight, troponin); type: in vivo, Hartley guinea pigs; conditions: for left ventricular / cardiac hypertrophy (cardiac weight): after 86 days (2 cycles) of treatment
[2] = Langendorff retrograde perfusion of hearts taken on Day 86 (left ventricle contractility and kinetics); parameters: species or system Hartley guinea pigs; conditions: Day 86, ex vivo Langendorff
Protocol: In FIG. 5B, on Day 86, the animals were euthanized and the hearts mounted onto a Langendorff retrograde perfusion system. A left ventricular pressure transducer was inserted into the left ventricle and recorded LV contraction amplitude and kinetics.
In FIG. 6, the pressure developed by the heart on Day 86 of treatment was measured ex-vivo in a Langendorff retrograde perfusion system.

HEK293 cells = conditions: 20 μM, 24 h incubation; cited from earlier work

- end-systolic / developed left ventricular pressure [2]: significantly lower
- rate of contraction of the LV ([2]; LV pressure transducer): lower
SMILES: CCN(CC)CCNC(=O)c1c(C)[nH]c(/C=C2\C(=O)Nc3ccc(F)cc32)c1C [sunitinib]
- mean arterial blood pressure ([1]; Day 86, invasive femoral artery catheter, anesthetized animals, sunitinib alone compared with sunitinib plus the invention): Significantly higher
- left ventricular / cardiac hypertrophy (cardiac weight) [1]: onset of hypertrophy
- left ventricular / cardiac hypertrophy (cardiac weight) ([1]; listed as Sunitinib): caused cardiac hypertrophy
- QTc prolongation ([1]; as of Day 28, increasing steadily until Day 86, sunitinib 10 mg/kg/day, Bazett correction, n=6 per group): 15 to 25 ms
- Troponin I levels ([1]; blood, sunitinib alone compared with sunitinib plus the invention): significantly higher
- LV ejection velocity at the aortic valve (AoVMax) ([1]; cardiac echography, over the treatment): lower; also recorded: gradual decrease
- left ventricular distension (end of diastole and end of systole) ([1]; echocardiography, over the treatment): left-ventricular distention
- left ventricular distension (end of diastole and end of systole) ([1]; echocardiography, over the treatment, listed as Sunitinib): greater LV distension
- left-ventricular fractional shortening ([1]; echocardiography, difference between groups significant after 86 days): lower; also recorded: time-dependent loss
- Troponin levels compared with intact animals ([1]; intact animals 0.05 ng/mL (data not shown)): significantly greater

SMILES: COc1cc(/C=C/C(=O)CC(=O)/C=C/c2ccc(O)c(OC)c2)ccc1O [curcumin]
- HEK293 cell viability (HEK293 cells): reduced
